According to patent publication US20120238491A1, “IMMUNOLOGICALLY ACTIVE LIPOPEPTIDES AND METHODS FOR USE THEREOF” (THERIMUNEX PHARMACEUTICALS, INC., priority 2009, published 2012):

How the values were obtained:
IL-8 protein = assay: ELISA for secreted IL-8 protein from human fibroblasts; format: cell-based; details: 0.3 to 3 ng/mL
Experimental: Fibroblasts were treated with various concentrations of synthetic pDAG for 24 hours; the media were reserved for ELISA assays of IL-6 and IL-8, and mRNA was extracted from the cells to measure all four cytokines IL-6 mRNA was elevated 20% in response to synthetic pDAG and 40% with natural pDAG relative to a -actin control (p<0.05). […] Compound pDAG induced IL-8 expression by about 5-fold compared to untreated fibroblasts, in dose-response studies (FIG. 2). […] The MCP-1 and MIP-1 mRNA expression in human fibroblasts incubated with approximately equivalent amounts of natural pDAG (1:100 dilution) and synthetic pDAG (3 ng/mL). Both synthetic pDAG and the natural product induced a 3-fold increase in MCP-1 mRNA relative to the -actin control and increased MIP-1α mRNA expression relative to -actin by 15% (FIG. 3).
ELISA for IL-8 Protein. Human IL-8 was measured by ELISA according to the manufacturer's specifications (eBioscience San Diego, Calif.) in the supernatants of fibroblasts cultured in complete DMEM with varying amounts of pDAG. Briefly, high affinity binding plates were coated with anti-human IL-8 overnight at 4° C. Wells were washed with Wash Buffer five times at 1 min. each wash and blocked with Assay Diluent for 60 min. at room temp. […] The reaction was halted with Stop Solution and the plate read at 450 nm with wavelength subtraction at 570 nm.

HBV = HBV viral load in hepatocytes; format: cell-based; details: 25 to 400 ng/ml
IL-1 mRNA = IL-1 mRNA expression in human fibroblasts; format: cell-based
Experimental: Therefore we speculated that the diacylglycerol moiety enabled the peptide to cross the cell membrane. To test this hypothesis and to ascertain the biological role of the diacylglycerol moiety in compound pDAG, if any, the peptide moiety transfected into human fibroblasts or diacylglycerol alone were evaluated by measuring the expression of mRNA (IL-1, IL-6, IL-8, IL-18, and IL-33). […] Diacylglycerol could stimulate mRNA expression of IL-33 and IL-18, but not IL-1 in fibroblasts. […] Normal primary human fibroblasts obtained from the Coriell Institute (Camden, N.J.) were cultured in 70 mm dishes in DMEM supplemented with 10% FBS and 1× penicillin/streptomycin at 37° C. and 5% CO2. Human fibroblasts were incubated in the presence of the serum fractions, compound pDAG, the peptide moiety of pDAG, or diacylglycerol. In the initial experiments we examined the differences between fibroblasts treated with the various serum fractions, synthetic pDAG (the peptide moiety from pDAG or diacylglycerol), fibroblasts treated with LPS as a positive control, and fibroblasts without treatment. The culture medium was stored at −80° C. for ELISA of the excreted cytokine proteins (see below). Total RNA from fibroblasts was extracted using the RNeasy Mini kit (Qiagen, Valencia, Calif.) according to the manufacturer's protocol. To verify the expression of transcripts; 2.0 μg of total RNA was reverse-transcribed using Super-script-III reverse transcriptase (Invitrogen, Carlsbad Calif.), according to the manufacturer's protocol. Transcripts were quantified using SYBR Green PCR amplification (Perkin Elmer, Waltham Mass.). Primers employed in these studies are outlined in Table 6, below. All transcripts were normalized to β-actin. Briefly, 0.4 μg/μL of cDNA was tested with 10 μM of each specific primer and 1× SYBR Green in a total volume of 20 uL. Lipofection Studies. Cells were cultured so that at the time of transfection they were 50-80% confluent. Five microliters of the stock peptide moiety from pDAG was diluted in Opti-MEM Reduced Serum Medium to give a final concentration of 5 μg/mL. […]

IL-18 mRNA = IL-18 mRNA expression in human fibroblasts; format: cell-based
Experimental: Therefore we speculated that the diacylglycerol moiety enabled the peptide to cross the cell membrane. To test this hypothesis and to ascertain the biological role of the diacylglycerol moiety in compound pDAG, if any, the peptide moiety transfected into human fibroblasts or diacylglycerol alone were evaluated by measuring the expression of mRNA (IL-1, IL-6, IL-8, IL-18, and IL-33). […] Diacylglycerol could stimulate mRNA expression of IL-33 and IL-18, but not IL-1 in fibroblasts. […] Normal primary human fibroblasts obtained from the Coriell Institute (Camden, N.J.) were cultured in 70 mm dishes in DMEM supplemented with 10% FBS and 1× penicillin/streptomycin at 37° C. and 5% CO2. Human fibroblasts were incubated in the presence of the serum fractions, compound pDAG, the peptide moiety of pDAG, or diacylglycerol. In the initial experiments we examined the differences between fibroblasts treated with the various serum fractions, synthetic pDAG (the peptide moiety from pDAG or diacylglycerol), fibroblasts treated with LPS as a positive control, and fibroblasts without treatment. The culture medium was stored at −80° C. for ELISA of the excreted cytokine proteins (see below). Total RNA from fibroblasts was extracted using the RNeasy Mini kit (Qiagen, Valencia, Calif.) according to the manufacturer's protocol. To verify the expression of transcripts; 2.0 μg of total RNA was reverse-transcribed using Super-script-III reverse transcriptase (Invitrogen, Carlsbad Calif.), according to the manufacturer's protocol. Transcripts were quantified using SYBR Green PCR amplification (Perkin Elmer, Waltham Mass.). Primers employed in these studies are outlined in Table 6, below. All transcripts were normalized to β-actin. Briefly, 0.4 μg/μL of cDNA was tested with 10 μM of each specific primer and 1× SYBR Green in a total volume of 20 uL. Lipofection Studies. Cells were cultured so that at the time of transfection they were 50-80% confluent. Five microliters of the stock peptide moiety from pDAG was diluted in Opti-MEM Reduced Serum Medium to give a final concentration of 5 μg/mL. PLUS reagent (0.5 μL) and lipofectamine (1 μL) were then added to the peptide Opti-MEM solution, vortexed and incubated at room temperature for 30 min. Five hundred microliters of complete DMEM was added to the fibroblasts and 0.6 μL of the peptide/lipofectamine was added and allowed to incubate overnight. RNA was extracted and processed as described above.

[1] = test system: established bacterial and viral infections; assay: Administration to dogs, survival rate; format: in vivo; details: various amounts
IgM production = assay: Administration to rabbits, adjuvant effect on IgM production; format: in vivo; details: administered with other drugs
MCP-1 mRNA = MCP-1 mRNA expression in human fibroblasts; format: cell-based; details: for MCP-1 mRNA increase: relative to -actin
Experimental: (§1) mRNA Expression Experiments. Normal primary human fibroblasts obtained from the Coriell Institute (Camden, N.J.) were cultured in 70 mm dishes in DMEM supplemented with 10% FBS and 1× penicillin/streptomycin at 37° C. and 5% CO2. Human fibroblasts were incubated in the presence of the serum fractions, compound pDAG, the peptide moiety of pDAG, or diacylglycerol. In the initial experiments we examined the differences between fibroblasts treated with the various serum fractions, synthetic pDAG (the peptide moiety from pDAG or diacylglycerol), fibroblasts treated with LPS as a positive control, and fibroblasts without treatment. The culture medium was stored at −80° C. for ELISA of the excreted cytokine proteins (see below). Total RNA from fibroblasts was extracted using the RNeasy Mini kit (Qiagen, Valencia, Calif.) according to the manufacturer's protocol. To verify the expression of transcripts; 2.0 μg of total RNA was reverse-transcribed using Super-script-III reverse transcriptase (Invitrogen, Carlsbad Calif.), according to the manufacturer's protocol. Transcripts were quantified using SYBR Green PCR amplification (Perkin Elmer, Waltham Mass.). Primers employed in these studies are outlined in Table 6, below. All transcripts were normalized to β-actin. Briefly, 0.4 μg/μL of cDNA was tested with 10 μM of each specific primer and 1× SYBR Green in a total volume of 20 uL.
(§2) Bioassays. The fractions generated from dialysis (methanol/chloroform soluble, methanol/chloroform insoluble, dialysis retentate, and the fractions collected from reversed phase HPLC) were taken to dryness by lyophilization. The freeze-dried solids were weighed and dissolved in the appropriate volume of deionized water to give a final concentration of 1 mg/mL and assayed for mRNA expression (IL-6, IL-8, MIP1α, and MIP1β) in human fibroblasts.

human fibroblasts = assay: Inflammatory cytokine and chemokine production by human fibroblasts (overall stimulation); format: cell-based; details: pDAG
Experimental: as §1
Lipofection Studies. Cells were cultured so that at the time of transfection they were 50-80% confluent. […] PLUS reagent (0.5 μL) and lipofectamine (1 μL) were then added to the peptide Opti-MEM solution, vortexed and incubated at room temperature for 30 min. Five hundred microliters of complete DMEM was added to the fibroblasts and 0.6 μL of the peptide/lipofectamine was added and allowed to incubate overnight.

IL-6 mRNA = IL-6 mRNA expression in human fibroblasts; format: cell-based; details: for IL-6 mRNA elevation relative to a -actin control: 24 hours, p<0.05; for IL-6 mRNA expression increase relative to untreated control: 24 h, normalized to -actin (FIG. 1)
Experimental: as §1
(§3) Lipofection Studies. Cells were cultured so that at the time of transfection they were 50-80% confluent. […] PLUS reagent (0.5 μL) and lipofectamine (1 μL) were then added to the peptide Opti-MEM solution, vortexed and incubated at room temperature for 30 min. Five hundred microliters of complete DMEM was added to the fibroblasts and 0.6 μL of the peptide/lipofectamine was added and allowed to incubate overnight. RNA was extracted and processed as described above.
as §2

IL-33 mRNA = IL-33 mRNA expression in human fibroblasts; format: cell-based
Experimental: Therefore we speculated that the diacylglycerol moiety enabled the peptide to cross the cell membrane. To test this hypothesis and to ascertain the biological role of the diacylglycerol moiety in compound pDAG, if any, the peptide moiety transfected into human fibroblasts or diacylglycerol alone were evaluated by measuring the expression of mRNA (IL-1, IL-6, IL-8, IL-18, and IL-33). […] Diacylglycerol could stimulate mRNA expression of IL-33 and IL-18, but not IL-1 in fibroblasts. […] Normal primary human fibroblasts obtained from the Coriell Institute (Camden, N.J.) were cultured in 70 mm dishes in DMEM supplemented with 10% FBS and 1× penicillin/streptomycin at 37° C. and 5% CO2. Human fibroblasts were incubated in the presence of the serum fractions, compound pDAG, the peptide moiety of pDAG, or diacylglycerol. In the initial experiments we examined the differences between fibroblasts treated with the various serum fractions, synthetic pDAG (the peptide moiety from pDAG or diacylglycerol), fibroblasts treated with LPS as a positive control, and fibroblasts without treatment. The culture medium was stored at −80° C. for ELISA of the excreted cytokine proteins (see below). […] Transcripts were quantified using SYBR Green PCR amplification (Perkin Elmer, Waltham Mass.). […]

[2] = test system: established bacterial and viral infections; assay: Administration to cows, number of white blood cells; format: in vivo; details: various amounts
MIP-1 mRNA = MIP-1 mRNA expression in human fibroblasts; format: cell-based; details: for MIP-1 mRNA expression increase: natural pDAG 1:100 dilution, relative to -actin
Experimental: as §1, §2

IL-8 mRNA = IL-8 mRNA expression in human fibroblasts; format: cell-based
Experimental: as §1, §3
Bioassays. The fractions generated from dialysis (methanol/chloroform soluble, methanol/chloroform insoluble, dialysis retentate, and the fractions collected from reversed phase HPLC) were taken to dryness by lyophilization. […]

C. pneumonia = C. pneumonia load in THP-1 cells; format: cell-based; details: 25 ng/ml and 50 ng/ml
Text: The pDAG produced in accordance with the invention is believed to induce fibroblast IL-6 expression similar to that of the natural product, and to induce fibroblast IL-8 mRNA and protein expression, to increase MCP-1 expression and to induce MIP-1alpha.

Lability to hydrolysis = format: physicochemical; details: acidic and basic conditions
Experimental: The C8 RP-HPLC peaks eluting between 4.83 and 9.36 min. in a non-purified fraction containing compound pDAG are hydrolysis products of compound pDAG. Therefore, the classical degradation approach to natural product structure elucidation was used. The purified compound pDAG (as a tryptophan complex) was subjected to mild acid hydrolysis, in situ N-terminal sulfonation, and analysis of the hydrolysis products to identify peptide fragments that would account for the entire structure of pDAG.
Hydrolysis and Derivatization of the Natural Product (pDAG). […] Therefore, […] of native pDAG was subjected to mild acid hydrolysis conditions (1 N HCl in phosphate buffered saline) for 18 hours at 25° C. The post-reaction buffer salts were removed using a C18 spin column (ThermoFisher Scientific) and the hydrolysis products were eluted from the column using 50% CH3CN/0.1% TFA. The final product was brought to dryness by evaporation in vacuo at 4° C. The hydrolysis products were derivatized using the N-terminal sulfonation reagent, 4-sulfophenylisothiocyanate, and analyzed in situ by MALDITOF in an -cyano-4-hydroxycinnamic acid matrix using the method described by Wang. See Wang, D.; Kalb, S. R.; Cotter, R. J. Rapid Commun. Mass Spectrom. 2004, 18, 96-102.

[3] = increasing concentrations of synthetic pDAG

Substance: 1-peptidyl-2-arachidonoyl-3-stearoyl glyceride [pDAG]
- concentration giving maximal effect (EC99) on secreted IL-8 (IL-8 protein; ELISA, 24 hours): 3 ng/mL
- secreted IL-8 protein dose response (IL-8 protein; [3]): positive linear dose response
- HBV viral load (HBV): reduction of HBV viral load
- induction of IL-1alpha (IL-1 mRNA): found to induce
- induction of IL-1beta (IL-1 mRNA): found to induce
- induction of IL-18 (IL-18 mRNA): found to induce
- survival rate compared with untreated dogs [1]: over doubling the survival rate
- adjuvant effect in terms of IgM production (IgM production): significant adjuvant effect
- MCP-1 expression in fibroblasts (in words) (MCP-1 mRNA; peptide transfected): increased expression
- MCP-1 mRNA increase (MCP-1 mRNA; synthetic pDAG 3 ng/mL): 3 fold
- EC99 (apparent / possible maximum effective concentration) (human fibroblasts; human fibroblasts, cytokine and chemokine production): 3 ng/mL
- EC99 (human fibroblasts; signaling in human fibroblasts): ~1 nM
- IL-6 mRNA elevation relative to a -actin control (IL-6 mRNA; listed as synthetic pDAG): 20%
- IL-6 mRNA expression increase relative to untreated control (IL-6 mRNA; synthetic pDAG 5 ng/mL): ~30%
- induction of IL-33 (IL-33 mRNA): found to induce
- reduction of the number of white blood cells [2]: nearly threefold
- MIP-1α expression in fibroblasts (in words) (MIP-1 mRNA; peptide transfected): increased expression
- IL-8 expression induction compared to untreated fibroblasts (IL-8 mRNA; dose-response studies (FIG. 2), 24 hours): about 5 fold
- IL-8 mRNA expression dose response (IL-8 mRNA; [3]): negative dose response
- C. pneumonia load (C. pneumonia): reduction of C. pneumonia load

Substance: 1-peptidyl-2-arachidonoyl-3-stearoyl glyceride [natural pDAG]
- lability to hydrolysis (Lability to hydrolysis; listed as Native pDAG): labile to acid hydrolysis
- lability to hydrolysis (Lability to hydrolysis; listed as serum-derived compound pDAG): especially labile to hydrolysis
- MCP-1 mRNA increase (MCP-1 mRNA; natural pDAG 1:100 dilution): 3 fold
- IL-6 mRNA elevation relative to a -actin control (IL-6 mRNA): 40%
- IL-6 mRNA expression increase relative to untreated control (IL-6 mRNA; natural pDAG 1:100 dilution): ~30%
- MIP-1 mRNA expression increase (MIP-1 mRNA): ~60%
- MIP-1 mRNA expression increase (MIP-1 mRNA; listed as natural product): 15%
